Experimental data from PMC5390315 (Scientific Reports, 2017).
Values joined by “and” are separate entries in the source; they are usually repeats but may differ in a detail not shown here. Equal values may be shown once. Read-outs that look alike come from different tables or passages of the source.

Experiments:
HeLa cells [1] = assay: Annexin-V/PI apoptosis assay, HeLa; assay type: cell-based, human; settings: 60 nM, 24 h
Description: (§1) Cell death was determined by flow cytometry of cells double stained with annexin V/FITC and PI. The Coulter Cytomics FC500 (Beckman Coulter) was used to measure the surface exposure of PS on apoptotic cells according to the manufacturer’s instructions (Annexin-V Fluos, Roche Diagnostics).

SEM cells = assay: Antiproliferative MTT assay, SEM; assay type: cell-based, human; settings: Homo sapiens, 72 h, mean ± SE
Description: (§2) Human T-cell leukemia (Jurkat) and human B-cell leukemia (SEM and RS4;11) cells were grown in RPMI-1640 medium (Gibco, Milano, Italy). Breast adenocarcinoma (MCF-7), human cervix carcinoma (HeLa), human lung adenocarcinoma (A549) and human colon adenocarcinoma (HT-29) cells were grown in DMEM medium (Gibco, Milano, Italy), all supplemented with 115 units/mL penicillin G (Gibco, Milano, Italy), 115 μg/mL streptomycin (Invitrogen, Milano, Italy), and 10% fetal bovine serum (FBS; Invitrogen, Milano, Italy). Stock solutions (10 mM) of the different compounds were obtained by dissolving them in DMSO. Individual wells of a 96-well tissue culture microtiter plate were inoculated with 100 μL of complete medium containing 8 × 10^3 cells. The plates were incubated at 37 °C in a humidified 5% CO2 incubator for 18 h prior to the experiments. After medium removal, 100 μL of fresh medium containing the test compound at different concentrations was added to each well in triplicate and incubated at 37 °C for 72 h. The percentage of DMSO in the medium never exceeded 0.25%. This was also the maximum DMSO concentration in all cell-based assays described below.

[2] = tested on: B16 murine melanoma cells; assay: MTT assay on B16 murine melanoma cells; assay type: cell-based; settings: Mus musculus
[3] = tested on: panel of seven human tumor cell lines; assay: Antiproliferative activity, range over panel of seven human tumor cell lines; assay type: cell-based; settings: read-out: IC50 values, range over the cell line panel
Description: as §2

tubulin = assay: Inhibition of [3H]colchicine binding to tubulin; settings: tubulin 1 μM, [3H]colchicine 5 μM
Description: (§3) To evaluate the effect of the compounds on tubulin assembly in vitro[41], varying concentrations of compounds were preincubated with 10 μM bovine brain tubulin in 0.8 M monosodium glutamate (pH adjusted to 6.6 with HCl in a 2.0 M stock solution) at 30 °C and then cooled to 0 °C. After addition of 0.4 mM GTP, the mixtures were transferred to 0 °C cuvettes in a recording spectrophotometer and warmed to 30 °C. Tubulin assembly was followed turbidimetrically at 350 nm. […] The capacity of the test compounds to inhibit colchicine binding to tubulin was measured as described, except that the reaction mixtures contained 1 μM tubulin, 5 μM [^3H]colchicine and 1 or 5 μM test compound.

bovine brain tubulin = assay: Inhibition of tubulin polymerization; assay type: biochemical; settings: tubulin at 10 μM; read-out: Tubulin assembly IC50 ± S.D
Description: as §3

MCF-7 = assay: Antiproliferative MTT assay, MCF-7; assay type: cell-based, human; settings: Homo sapiens, MCF7, 72 h, mean ± SE
Description: as §2

HeLa cells [4] = assay: Mitotic cells by p-histone H3/PI flow cytometry; assay type: cell-based, human; settings: 100 nM, 24 h, untreated 1.3%
Jurkat cells = assay: Annexin-V/PI apoptosis assay, Jurkat; assay type: cell-based, human; settings: 60 nM, 24 h
Description: as §1

[5] = tested on: BL6-B16 murine melanoma cells; assay: Mouse allograft tumor model (BL6-B16 melanoma); assay type: in vivo
Excerpt: Animal experiments were approved by our local animal ethics committee (OPBA, Organismo Preposto al Benessere degli Animali, Università degli Studi di Brescia, Italy) and were executed in accordance with national guidelines and regulations. Procedures involving animals and their care conformed with institutional guidelines that comply with national and international laws and policies (EEC Council Directive 86/609, OJ L 358, 12 December 1987) and with “ARRIVE” guidelines (Animals in Research Reporting In Vivo Experiments). Six week old C57BL/6 mice (Charles River, Calco) were injected subcutaneously into the dorsolateral flank with 2.5x10^5 BL6-B16 murine melanoma cells in 200 μL of PBS. When tumors were palpable, animals were treated intraperitoneally every other day with different doses of test compounds dissolved in 50 μL of DMSO. Tumors were measured in two dimensions, and tumor volume was calculated according to the formula V = (D × d^2)/2, where D and d are the major and minor perpendicular tumor diameters, respectively.

HUVECs [6] = assay: HUVEC scratch wound motility assay; assay type: cell-based, human; settings: 100 nM, 6 h and 24 h
Description: (§4) HUVECs were prepared from human umbilical cord veins, as previously described. The adherent cells were maintained in M200 medium supplemented with LSGS (Low Serum Growth Supplement), containing FBS, hydrocortisone, hEGF, bFGF, heparin, gentamycin/amphotericin (Life Technologies, Monza, Italy). Once confluent, the cells were detached by a trypsin–EDTA solution and used in experiments from the first to sixth passages.
The motility assay for HUVECs was based on “scratch” wounding of a confluent monolayer. Briefly, HUVECs (1x10^5) were seeded onto 6-well plates coated with 0.1% collagen type I (BD Biosciences, Italy) in complete medium until a confluent monolayer was formed. The cells were wounded using a pipette tip, and wells were washed with PBS to remove undetached cells. Then, the cells were treated with the test compounds, and, at different times from the scratch, the cells were photographed under a light microscope. At all indicated time points, the wound width was measured in four areas and compared with the initial width.

HeLa = assay: Antiproliferative MTT assay, HeLa; assay type: cell-based, human; settings: Homo sapiens, HeLa, 72 h, mean ± SE
Description: as §2

HUVECs [7] = assay: Disruption of capillary-like tubes on Matrigel; assay type: cell-based, human; settings: 100 nM (highest concentration), 24 h
Description: as §4
Matrigel matrix (Basement Membrane Matrix, BD Biosciences, Italy) was kept at 4 °C for 3 h, when 230 μL of Matrigel solution was added to each well of a 24-well plate. After gelling at 37 °C for 30 min, gels were overlaid with 500 μL of medium containing 6 × 10^4 HUVECs. The cells were incubated over Matrigel for 6 h to allow capillary tubes to form. Different concentrations of test compound were added in the cultures and incubated for different times, and the disappearance of existing vasculature was monitored and photographed (five fields for each well: the four quadrants and the center) at a 10x magnification. Phase contrast images were recorded using a digital camera and saved as TIFF files. Image analysis was carried out using ImageJ image analysis software, and dimensional (percent area covered by HUVECs and total length of HUVECs network per field) and topological parameters (number of meshes and branching points per field) were determined. Values were expressed as percent change from control cultures grown with complete medium.

Question: How did the “apoptotic cells (annexin-V)” value (HeLa cells [1]) turn out when CCOc1ccc(-c2oc(C)nc2-c2cc(OC)c(OC)c(OC)c2)cc1 [Compound 4i, 4-(3,4,5-Trimethoxyphenyl)-5-(4-ethoxyphenyl)-2-methyloxazole] was run?
Answer: The value was 70%.

Question: And the IC50 (SEM cells)?
Answer: The IC50 was 6.1 ± 2.3 nM.

Question: What about the IC50 [2] of the same molecule?
Answer: The IC50 was 15.6 ± 1.9 nM.

Question: And the IC50 ([3]; Homo sapiens)?
Answer: The IC50 was 0.5 to 20 nM.

Question: What about the IC50 [3] of the same molecule?
Answer: Its IC50 is 0.5 to 20.2 nM.

Question: What about the “Colchicine binding % inhibition ± S.D, 1 μM drug” value (tubulin; 1 μM drug) of the same molecule?
Answer: The value was 62 ± 0.4%.

Question: And the “Colchicine binding % inhibition ± S.D, 5 μM drug” value (tubulin; 5 μM drug)?
Answer: Its value is 82% and 86 ± 1%.

Question: And the IC50 (bovine brain tubulin)?
Answer: The IC50 was 560 ± 100 nM.

Question: What about the IC50 (MCF-7) of the same molecule?
Answer: Its IC50 is 4.5 ± 1.8 nM.

Question: And the “percentage of mitotic cells (p-histone H3)” value (HeLa cells [4])?
Answer: Its value is about 46%.

Question: And the “apoptotic cells (annexin-V)” value (Jurkat cells)?
Answer: The value was 40%.

Question: And the “reduction in tumor mass” value ([5]; 3.0 mg/kg i.p. on days 9, 11 and 14)?
Answer: Its value is 34.9%.

Question: What about the “reduction in tumor mass” value ([5]; 7.5 mg/kg i.p. on days 9, 11 and 14) of the same molecule?
Answer: Its value is 52.5%.

Question: What about the “signs of toxicity in mice” value ([5]; highest dose (7.5 mg/kg i.p.)) of the same molecule?
Answer: The value was “did not show any sign of toxicity”.

Question: And the animal body weight ([5]; highest dose (7.5 mg/kg i.p.), data not shown)?
Answer: The animal body weight was “did not cause a decrease in animal body weight”.

Question: What about the “HUVEC cell migration (wound healing)” value (HUVECs [6]) of the same molecule?
Answer: The value was “significantly reduced”.

Question: And the IC50 (HeLa)?
Answer: Its IC50 is 0.9 ± 0.3 nM.

Question: What about the “antivascular effect on Matrigel preformed tubular structures” value (HUVECs [7]) of the same molecule?
Answer: Its value is “did not show a significant antivascular effect”.
